Converted amounts (≈) assume the structure as drawn. Where two headings read alike, the source gives them in different places. Bridge positions count the residues as written; N and C are the ends. Square brackets hold non-standard residues; d marks the D form. Peptide text beside a SMILES is read from it. Pro(cis-4-guanidino) = NC(N)=N[C@@H]1CN[C@H](C(=O)O)C1; Phe(4-guanidino) = N=C(N)Nc1ccc(C[C@H](N)C(=O)O)cc1
Key:
[1] = assay type: cell-based, human; conditions: human; for viability at 2 h, 3.12 µM / viability at 2 h, 6.25 µM / viability at 2 h, 12.5 µM / viability at 2 h, 25 µM / viability at 2 h, 50 µM / viability at 2 h, 100 µM / viability at 24 h, 3.12 µM / viability at 24 h, 6.25 µM / viability at 24 h, 12.5 µM / viability at 24 h, 25 µM / viability at 24 h, 50 µM / viability at 24 h, 100 µM: Cell viability (%)
Protocol: (§1) For the evaluation of peptides’ cytotoxicity, the human immortalized keratinocytes (HaCaT cells), purchased from AddexBio (San Diego, CA, USA), and BEAS-2B were used. HaCaT cells were cultured in Dulbecco’s modified Eagle’s medium supplemented with 4 mM glutamine (DMEM), 10% heat-inactivated fetal bovine serum (FBS), and 0.1 mg/mL of penicillin and streptomycin, at 37 °C and 5% CO2. BEAS-2B cells were cultured in RPMI, supplemented with 2 mM glutamine (DMEM), 10% heat-inactivated fetal bovine serum (FBS), 1 mM sodium pyruvate, and 0.1 mg/mL of penicillin and streptomycin, at 37 °C and 5% CO2. Cytotoxicity was tested in vitro using a colorimetric assay that relies on the intracellular reduction of the yellow 3-(4,5-dimethylthiazol-2-yl)-2,5-diphenyltetrazolium bromide salt (MTT) by mitochondrial dehydrogenases of metabolically active cells in formazan crystals (purple). About 4 × 10^4 HaCaT and BEAS-2B cells, suspended in DMEM supplemented with 2% FBS, were plated in triplicate wells of a 96-well microtiter plate. The plate was incubated overnight at 37 °C and 5% CO2. Then, the cells were treated with different concentrations of the peptide (from 100 to 3.12 μM) in a fresh serum-free medium for 2 h and for a longer time (24 h). Following peptide treatment, the medium was removed, and MTT (0.5 mg/mL) solution in Hank’s buffer (136 mM NaCl, 4.2 mM Na2HPO4, 4.4 mM KH2PO4, 5.4 mM KCl, 4.1 mM NaHCO3, pH 7.2, supplemented with 20 mM D-glucose) was added to each well of the plate, that was then incubated for 4 h at 37 °C and 5% CO2. The purple formazan crystals were dissolved using acidified 2-propanol and a microplate reader (Infinite M200; Tecan, Salzburg, Austria) was used to measure the absorbance of each well at 570 nm. The percentage of cell viability was calculated compared to the control, which consisted of cells without any peptide treatment (corresponding to 100% viability) and all data represent the mean of three independent experiments ± SEM.

E. coli ATCC 25922 = test: microbe, parasite or virus in culture; assay type: cell-based; conditions: ATCC 25922
Protocol: (§2) Bacterial strains used in this study were the Gram-positive S. aureus ATCC 25923, S. epidermidis ATCC 12228, B. megaterium BM11, S. [NT] 27591, E. faecalis ATCC 29212 and the Gram-negative E. coli ATCC 25922, P. aeruginosa ATCC 27853, A. baumannii ATCC 19606, E. coli D21 and P. aeruginosa PAO1. […] Bacterial cells in the mid log phase were diluted in Muller Hinton (MH) at a concentration of 2 × 10^6 cell/mL. […] Ciprofloxacin was used as antibiotic control. The plate was then incubated at 37 °C. MICs were obtained from three identical readings of four independent experiments.

S. agalactiae ATCC 27591 = test: microbe, parasite or virus in culture; assay type: cell-based; conditions: ATCC 27591
Protocol: as §2

B. megaterium BM11 = test: microbe, parasite or virus in culture; assay type: cell-based; conditions: BM11
Protocol: as §2

S. aureus ATCC 25923 = test: microbe, parasite or virus in culture; assay type: cell-based; conditions: ATCC 25923
Protocol: as §2

E. coli D21 = test: microbe, parasite or virus in culture; assay type: cell-based; conditions: D21
Protocol: as §2

E. faecalis ATCC 29212 = test: microbe, parasite or virus in culture; assay type: cell-based; conditions: ATCC 29212
Protocol: as §2

P. aeruginosa ATCC 27853 = test: microbe, parasite or virus in culture; assay type: cell-based; conditions: ATCC 27853
Protocol: as §2

A. baumannii ATCC 19606 = test: microbe, parasite or virus in culture; assay type: cell-based; conditions: ATCC 19606
Protocol: as §2

[2] = test system: S. epidermidis ATCC 12228; test: microbe, parasite or virus in culture; assay type: cell-based; conditions: ATCC 12228
Protocol: as §2

circular dichroism = conditions: water; pH ns; 25 °C; 150 uM
in vitro = in vitro ADME
Protocol: Peptide stability was evaluated by modifying previously described procedures. , The assays were performed in human serum and in the presence of proteolytic enzymes such as trypsin and chymotrypsin. For human serum stability, 2 mM peptide stock solutions were prepared in water and mixed with human serum (from male AB plasma, USA origin, sterile-filtered, Merck/Sigma-Aldrich, USA) to obtain a final concentration of 200 μM [human plasma/stock solution (9:1, v/v)]. The mixtures were incubated at 37 ± 1 °C, and 50 μL aliquots were taken at predetermined time intervals (0, 1, 2, 4, 8, and 24 h). Protease activity was quenched by adding 100 μL of acetonitrile (MeCN). The resulting cloudy suspensions were cooled to 4 °C for 30 min and centrifugated at 12,000 rpm for 10 min to remove the serum proteins. Then, the supernatants were analyzed by analytical HPLC (Shimadzu Nexera Liquid Chromatograph LC-30AD) which was equipped with a Phenomenex Kinetex reversed-phase column (C18, 5 μm, 100 Å, 150 mm × 4.6 mm) with a flow rate of 1 mL/min using a gradient of MeCN (0.1% TFA) in water (0.1% TFA), from 10 to 70% over 15 min, and UV detection at 220 nm. For enzyme stability, each peptide peptide (200 μM) was incubated with trypsin (0.5 μM) in PBS 1× (pH 7.2) or with chymotrypsin (0.005 μM) in Tris–HCl (100 mM, pH 7.8). Samples (50 μL) were collected at 0, 1, 2, 4, and 24 h, quenched with 0.5% TFA in water, and analyzed by HPLC under chromatographic conditions as described above. All experiments were conducted in triplicate. The percentage of intact peptides at each time point was determined by integrating the corresponding HPLC peak areas.

[3] = assay type: cell-based
Protocol: as §1

P. aeruginosa PAO1 = test: microbe, parasite or virus in culture; assay type: cell-based; conditions: PAO1
Protocol: as §2

Row | Compound | viability at 2 h, 3.12 µM [1] [%] | viability at 2 h, 6.25 µM [1] [%] | viability at 2 h, 12.5 µM [1] [%] | viability at 2 h, 25 µM [1] [%] | viability at 2 h, 50 µM [1] [%] | viability at 2 h, 100 µM [1] [%] | viability at 24 h, 3.12 µM [1] [%] | viability at 24 h, 6.25 µM [1] [%] | viability at 24 h, 12.5 µM [1] [%] | viability at 24 h, 25 µM [1] [%] | viability at 24 h, 50 µM [1] [%] | viability at 24 h, 100 µM [1] [%] | MIC (E. coli ATCC 25922) [µM] | MIC (S. agalactiae ATCC 27591) [µM] | MIC (B. megaterium BM11) [µM] | MIC (S. aureus ATCC 25923) [µM] | MIC (E. coli D21) [µM] | MIC (E. faecalis ATCC 29212) [µM] | MIC (P. aeruginosa ATCC 27853) [µM] | MIC (A. baumannii ATCC 19606) [µM] | other results
1 | CC[C@H](C)[C@H](NC(=O)[C@H](CCCNC(=N)N)NC(=O)[C@H]1CCC(=O)NCCCC[C@H](NC(=O)[C@H](Cc2ccccc2)NC(=O)[C@H](Cc2c[nH]c3ccccc23)NC(=O)[C@@H]2C[C@H](NC(=N)N)CN2C(=O)[C@@H](NC(=O)[C@@H](N)Cc2ccccc2)C(C)C)C(=O)N[C@@H](CCCCN)C(=O)N[C@@H](Cc2ccccc2)C(=O)N[C@H](CC(C)C)C(=O)N1)C(=O)N[C@@H](CC(C)C)C(N)=O [Peptide 7, FV(4-guanidino)PWF[KKFle]RIL] (H-FV[Pro(cis-4-guanidino)]WFKKF[dL][dE]RIL-NH2; lactam 6-10) | 101 | 100 | 102 | 72 | 16 | 8 | 99 ± 5 | 98 ± 1 | 95 ± 4 | 85 ± 2 | 18 ± 3 | 2 ± 1 | 3.12 (≈ 5.49 µg/mL) | 1.56 (≈ 2.75 µg/mL) | 0.78 (≈ 1.37 µg/mL) | 6.25 (≈ 11 µg/mL) | 3.12 (≈ 5.49 µg/mL) | 12.5 (≈ 22 µg/mL) | 12.5 (≈ 22 µg/mL) | 3.12 (≈ 5.49 µg/mL) | CC50 at 24 h ([1]; CC50): 37 µM; MIC [2]: 3.12 µM (≈ 5.49 µg/mL); helicity (circular dichroism): 1%; remaining at 4 h, 200 μM (in vitro; isolated enzyme chymotrypsin, pH 7.8): ~20%; remaining at 4 h, 200 μM (in vitro; isolated enzyme trypsin, pH 7.2): 10%; viability at 2 h, 3.12 µM ([3]; Cell viability (%)): 105%; viability at 2 h, 6.25 µM ([3]; Cell viability (%)): 117%; viability at 2 h, 12.5 µM ([3]; Cell viability (%)): 80%; viability at 2 h, 25 µM ([3]; Cell viability (%)): 28%; viability at 2 h, 50 µM ([3]; Cell viability (%)): 6%; viability at 24 h, 3.12 µM ([3]; Cell viability (%)): 111%; viability at 24 h, 6.25 µM ([3]; Cell viability (%)): 104%; viability at 24 h, 12.5 µM ([3]; Cell viability (%)): 90%; viability at 24 h, 25 µM ([3]; Cell viability (%)): 34%; viability at 24 h, 50 µM ([3]; Cell viability (%)): 9%; viability at 24 h, 100 µM ([3]; Cell viability (%)): 4%; viability at 12.5 µM ([3]; cell viability): ~85%
2 | CC[C@H](C)[C@H](NC(=O)[C@H](CCCNC(=N)N)NC(=O)[C@H]1CCC(=O)NCCCC[C@H](NC(=O)[C@H](Cc2ccccc2)NC(=O)[C@H](Cc2c[nH]c3ccccc23)NC(=O)[C@@H]2CCCN2C(=O)[C@@H](NC(=O)[C@@H](N)Cc2ccccc2)C(C)C)C(=O)N[C@@H](CCCCN)C(=O)N[C@@H](Cc2ccc(NC(=N)N)cc2)C(=O)N[C@H](CC(C)C)C(=O)N1)C(=O)N[C@@H](CC(C)C)C(N)=O [Peptide 10, FVPWF[KK(p-guanidino)Fle]RIL] (H-FVPWFKK[Phe(4-guanidino)][dL][dE]RIL-NH2; lactam 6-10) | 105 | 110 | 112 | 112 | 101 | 82 | 98 ± 3 | 104 ± 2 | 103 ± 3 | 106 ± 3 | 116 ± 5 | 95 ± 6 | 6.25 (≈ 11 µg/mL) | 6.25 (≈ 11 µg/mL) | 0.78 (≈ 1.37 µg/mL) | 100 (≈ 176 µg/mL) | 6.25 (≈ 11 µg/mL) | 50 (≈ 88.1 µg/mL) | 50 (≈ 88.1 µg/mL) | 6.25 (≈ 11 µg/mL) | MIC (P. aeruginosa PAO1): 25 µM (≈ 44 µg/mL); MIC [2]: 12.5 µM (≈ 22 µg/mL); helicity (circular dichroism): 3%

Reference: PMC12703733, “Probing Guanidino Pendant or Bridged Groups in Cyclic Antimicrobial Peptides Derived from Temporin L: A Strategy to Improve Efficacy against Gram-Negative Bacteria” (Journal of Medicinal Chemistry, 2025)
